Reference: a melting point compilation (Tetko et al.; mined from patent text by program, amines drawn as free bases though some values may be those of a salt)

| Structure (SMILES) | melting point [°C] |
| --- | --- |
| COc1ccc(NS(=O)(=O)c2ccc(N3CCC(NC[C@H](O)COc4ccc(O)cc4)CC3)cc2)cc1OC | 101 to 106 |
| CCn1ncc2c3c4c(nc21)CCc1ccccc1-c4nn3C | 140 to 141 |
| CCCc1c(C(=O)C(C)C)c2ccc(C(N)=O)cc2n1Cc1ccccc1[N+](=O)[O-] | 181 to 182 |
| CC(C)(C)c1ccc(-c2cc(Nc3ccc4[nH]ccc4c3)nnc2-c2ccccc2)cc1 | 138 to 140 |
| CCN(CC)CCN(CC)C(=O)c1ccc(Nc2ccnc3cc(Cl)ccc23)cc1 | 166 |
| CC(C)(C)c1cc(Cl)nc(N)n1 | 87.7 to 88.9 |
| CCCCCCCCOc1ccc(C(=O)OC(C)c2cc3c(s2)-n2c(C)nnc2CN=C3c2ccccc2Cl)cc1 (stereo unspecified) | 56 to 61 |
| CC(C)(C)OC(=O)NCC(N)c1c[nH]c2ccc(Br)cc12 (stereo unspecified) | 151 |
| Cc1ccc(-c2ccc(CCCCC(=O)O)s2)cc1 | 124 to 127 |
| Cc1cccc(-c2[nH]c(C(C)C)nc2-c2ccc(F)c(-c3ccc[nH]3)c2)n1 | 103 to 106 |
| CCOC(=O)c1conc1-c1ccc(Cl)cc1 | 43 to 45 |
| c1ccc(-c2nn3c(c2-c2nc4ncccc4o2)CCC3)nc1 | 182 to 184 |
| CCOC(=O)c1nc2n(c(=O)c1O)CCC=C2c1ccccc1 | 151 |
| CCC1(CC)c2cc(C)c(C)cc2C(CC)(CC)N1OC(C)=O | 80 to 82 |
| CCCCNc1nc2ccccc2n2ncc(C(=O)OCC)c12 | 96 |
| CC1(C)CCC(C)(C)c2cc(N(CCCCO)C(=O)Nc3cccc(C(=O)O)c3)ccc21 | 124 to 125 |
| O=C(Nc1cscc1S(=O)(=O)c1ccc(Cl)cc1)N[C@@H](Cc1ccc(NC(=O)c2c(Cl)cccc2Cl)cc1)C(=O)O | 202 |
| COc1ccc2cc(CCC(C)O)ccc2c1 (stereo unspecified) | 94 to 95 |
| Cc1c(C(=O)c2cnn(C(C)(C)C)c2O)ccc(S(C)(=O)=O)c1I | 171 to 172 |
| Cc1cc(=O)c2cc(N)ccc2s1 | 265 |
| CCOC(=O)C(=O)Nc1nnc2c3c(c(N4CCCCC4)nn12)CCCC3 | 168 to 169 |
| Cc1ccc(C(=O)c2c(OCc3ccccc3)cc(C(=O)O)cc2[N+](=O)[O-])cc1 | 222 to 223 |
| CCCCNc1c(C#N)cnc2cc(F)c(OC)cc12 | 155 to 156 |
| CC(C)(C)C(=O)C(C(Cl)C(Cl)(Cl)Cl)n1cncn1 (stereo unspecified) | 111 to 113 |
| CC(C)(C)OC(=O)N(C1CCNCC1)C1CCOCC1 | 104 |
| COc1cc2c(cc1OC)CN(C(=O)Cc1ccc([N+](=O)[O-])cc1)CC2 | 110 to 111 |

| Structure (SMILES) | melting point [°C] |
| --- | --- |
| COC(=O)OCC1OC(Oc2cc(C)cc(O)c2C(=O)CCc2ccc3occc3c2)C(O)C(O)C1O (stereo unspecified) | 78 to 82 |
| CCOC(=O)C1=C(C)NN=C(CC)C1c1ccc(Cl)cc1 (stereo unspecified) | 111 |
| Cn1c(=O)oc2cc3c(cc21)C1(CO3)C(=O)N(CC2CCCO2)c2ccccc21 (stereo unspecified) | > 250 |
| O=C1c2cc(-c3ccc(C(F)(F)F)cc3)ccc2CC1Br (stereo unspecified) | 105 |
| COc1cc(-n2c(OC)nc(C(F)(F)F)cc2=O)c(F)cc1Br | 175 to 177 |
| Oc1cc2c(cc1OCCCOc1ccccc1)OCC2 | 106 to 107 |
| Fc1ccc2c(c1)[C@H]1N[C@@H](CNC(c3ccccc3)(c3ccccc3)c3ccccc3)C[C@@H]1c1ccccc1C2 | 58 to 60 |
| CCc1nc2c(cnn2CC)c(NC2CCOCC2)c1CNC(=O)c1cccc(C(=O)NCc2ccc(Cl)c(-c3cccc(CN4CCNCC4)c3)c2)c1 | 127 to 130 |
| CCCC(=O)Nc1n[nH]c2cc(-c3ccc4c(c3)OCO4)ccc12 | 240 |
| CCN(CC)CCOc1ccc(C#Cc2ccc(OC)cc2)cc1 | 59 to 60 |
| CCNC(=O)n1nc(Oc2c(Cl)cc(C(F)(F)F)cc2Cl)cc1CC(=O)OCC | 100 to 102 |
| C=CCN1CCC23CC(=O)CCC2C1Cc1cccc(OC)c13 (stereo unspecified) | 84 to 86 |
| Cc1[nH]c(C=O)c(C)c1CCCCO | 99 |
| O=C(NCc1cccnc1)Nc1ccc([N+](=O)[O-])cc1 | 220 to 222 |
| CN1C(=O)CN(CCC#N)C1=O | 53 |
| CS(=O)(=O)Nc1ccc(C(N)=O)cc1Oc1ccc(F)cc1F | 147 to 150 |
| Cc1n[nH]c(C)c1Oc1cc(C#N)cc(C#N)c1 | 182 to 185 |
| O=C1N=c2ccc(NCCCc3ccccc3)cc2=N1 | 205 to 206 |
| CN1C(=O)Cc2ccsc2S1(=O)=O | 136 to 137 |
| O=C(Nc1ccc(OCCN2CCOCC2)c2ccccc12)c1ccc2snnc2c1 | 188 to 190 |
| CCC(=O)c1c(CC)n(Cc2ccccc2Cl)c2cc(-c3nnn[nH]3)ccc12 | 178 to 181 |
| CC(/C=C/C=C(\C)C1=Cc2cc(C(C)(C)C)cc(C)c2OC1)=C\C(=O)O | 227 to 228 |
| Cc1cc2c(cc1-c1csc(C=CC(=O)O)c1)C(C)(C)CCC2(C)C | 215 to 220 |
| FC(F)(F)c1ccccc1NCC1=NNCCN1 | 97 to 98 |
| O=C(COc1cccc2cccnc12)c1ccc(Cl)cc1 | 111 to 112 |
| Cc1nnc(Cl)c(-c2c(F)cc(OCCCN(C)C)cc2F)c1-c1ccc(Cl)cc1 | 112 to 113 |

| Structure (SMILES) | melting point [°C] |
| --- | --- |
| COc1cc2c(cc1N1CCN(CC3=CC4=CCSC4=C3)CC1)OCC2 | 186 to 190 |
| CC(c1oc2ccccc2c(=O)c1-c1cccc(F)c1)n1nc(-c2ccc3cc(O)ccc3c2)c2c(N)ncnc21 (stereo unspecified) | 281 to 285 |
| NC(=O)c1ccnc(-c2ccc(Oc3ccc(Cl)cc3F)cc2)n1 | 198 to 200 |
| C[C@H]([C@](O)(Cn1cncn1)c1ccc(F)cc1F)S(=O)(=O)N1CCN(c2ccc(C(F)(F)F)cc2)CC1 | 158 to 159 |
| O=C(O)CCc1c(C=C2C(=O)Nc3ccc(Cl)cc32)[nH]c2c1CCCC2 | 370 to 384 |
| Oc1ccc(-c2nn(-c3cc(F)ccc3F)c3cc(O)ccc23)c(O)c1 | 88 to 91 |
| COC(=O)c1cc2ccc3[nH]ccc3c2[nH]1 | 183 to 184 |
| CC1COc2cc(Oc3ccc(NC(=O)N(C)C)cn3)ccc21 (stereo unspecified) | 153 to 154 |
| CCCCC(=O)c1c(-c2ccc3cc(OCC(=O)O)ccc3c2)oc2ccccc12 | 130 to 132 |
| Cc1cccc(-c2[nH]c(C(C)C)nc2-c2cccc(-c3ccc4c(c3)CCS4(=O)=O)c2)n1 | 128 to 131 |
| O=C(NC1CCC(OC(=O)N2CCC3(CCCC3)CC2)CC1)C1CCN(C(=O)Oc2ccc(Oc3ccccc3)cc2)CC1 (stereo unspecified) | 230 to 231 |
| COc1cc(Cc2cnc(N)nc2N)cc2c1OC(C)(C)C=C2Br | 238 to 239 |
| CC(C)C[C@H](NC(=O)OCc1ccccc1Cl)C(=O)N[C@@H](Cc1ccccc1)C(=O)CSCc1ccco1 | 80 to 85 |
| COc1ccc(-c2ccc(CC(=O)O)cc2F)cc1 | 140 to 142 |
| O=C(Cc1ccccc1)Nc1cnc(-c2ccccc2)nc1Cl | 169 |
| COc1cc(OC)nc(C(C(N)=O)c2cccc(Cl)c2)n1 (stereo unspecified) | 118 to 119 |
| Cn1c(=O)c2cnc(N)nc2n(C)c1=O | > 300 |
| CC(C)(C)OC(=O)C(Cc1c[nH]cn1)N(C(=O)OC(C)(C)C)C(=O)OC(C)(C)C (stereo unspecified) | 98 |
| CCc1nc(N)nc(N)c1N1CCN(Cc2ccccc2)CC1 | 174 to 175 |
| C=CS(=O)(=O)c1ccc(/C(=C\C2CCCCC2)C(=O)OC)cc1Cl | 105 to 108 |
| COC(=O)c1sc2ccccc2c1O | 109 to 110 |
| COCc1nc(N)nc(SC)n1 | 134 to 136 |
| COC(c1cccc2nc3n(c12)CCCN3c1ccc(Cl)cc1Cl)C1CC1 (stereo unspecified) | 118 to 119 |
| CCCCCCc1cc2c(=O)c(-c3ccc(OC)cc3)coc2cc1O | 188 |
| CC(=O)Nc1ccc2c3c(oc2c1)CC(C(=O)O)CC3 (stereo unspecified) | 229 to 230 |
| CCC(=O)C(CCCCCCCCc1ccc(O)cc1)C(=O)CC | 164 to 165 |

| Structure (SMILES) | melting point [°C] |
| --- | --- |
| Cc1ccc2c(c1)C(=O)N1CCN=C1N2N1CCCCC1 | 197 to 199 |
| CC1(C)OC[C@H](COc2nc(S(C)(=O)=O)nc3[nH]nc(-c4ccccc4Cl)c23)O1 | 161 to 162 |
| C#CCOC(=O)c1ccc2ccccc2c1 | 68 to 70 |
| CSCC(O)CN1C(=O)C(CCC(=O)O)(NC(=O)c2ccc(Cl)c(Cl)c2)c2ccccc21 (stereo unspecified) | 168 to 170 |
| COCc1cc2cc(CN3CCOCC3)cc3c(=O)c(C(=O)NCc4ccc(Cl)cc4)cn1c23 | 157 to 159 |
| C=CCN(CC=C)C(=O)C1CC(C)(C)NC(C)(C)C1 | 64 to 67 |
| CCCCc1ncc(C=O)n1Cc1ccc(C(=O)OC)cc1 | 62 to 64 |
| CCC(CC)Nc1cc(C)nc(Nc2c(C)cc(C)cc2C)c1[N+](=O)[O-] | 104 to 107 |
| CC(Oc1ccc([N+](=O)[O-])cc1[N+](=O)[O-])C(=O)O (stereo unspecified) | 167 to 171 |
| COc1ccc(-c2sc3cc(OC)ccc3c2C(=O)c2cc(OC)cc(OC)c2)cc1 | 114 to 120 |
| CCc1cc2nc(N)c(-c3ccccc3)cc2c(CC)n1 | 110 to 112 |
| CC(C)Cc1ccc2ccc(=O)[nH]c2n1 | 135 to 137 |
| CSc1[nH]n(-c2c(Cl)cc(Cl)cc2Cl)c2nc(Cc3cccc(O)c3)nc(=O)c1-2 | 264 to 266 |
| COc1cc(O)c(C#N)c2cc(-c3ccc(O)c(F)c3)oc12 | 265 to 267 |
| FC(F)c1cc(-c2ccc(C(F)(F)F)cc2)nc2c(I)ncn12 | 159 |
| O=C1C2CCN(CC2)C1Cc1cccnc1 (stereo unspecified) | 95 |
| CC(=O)c1sc(=O)[nH]c1C | 208 to 211 |
| Cc1oc(-c2ccc(F)cc2)nc1COc1cccc(Cn2oc(=O)[nH]c2=O)c1 | 163 to 164 |
| COC(=O)c1cc2c3ccccc3n(C(C)=O)c2s1 | 179 to 181 |
| O=C1c2cccc3cc(OCCO)cc(c23)C(=O)N1O | 242 to 244 |
| C#Cc1ccc(Cn2cc(-c3ccc(OC)cc3)ccc2=O)cn1 | 273 |
| CCN(CC)CCNC(=O)c1ccc(N(S(C)(=O)=O)S(C)(=O)=O)cc1OC | 144 |
| CCOC(=O)c1ccc(OCc2nc(C)c(C)nc2C)cc1 | 75 to 75.7 |
